In PubChem BioAssay (NCI):
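Step 1: Grow cells in 96-well plates. Step 2: Expose to compound for 48 hours at 5 concentrations. Step 3: Interpolate endpoints linearly; if unreached, use highest concentration. At the TGI there is no net growth.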

Columns and labels:
Test in all cases: NCI-60 cell line screen, 48 h
NCI/ADR-RES ovarian = tested on: NCI/ADR-RES ovarian
HCT-116 colon = tested on: HCT-116 colon
PC-3 prostate = tested on: PC-3 prostate
U251 CNS = tested on: U251 CNS
OVCAR-4 ovarian = tested on: OVCAR-4 ovarian
M14 melanoma = tested on: M14 melanoma
BT-549 breast = tested on: BT-549 breast
SK-MEL-28 melanoma = tested on: SK-MEL-28 melanoma
KM12 colon = tested on: KM12 colon
OVCAR-5 ovarian = tested on: OVCAR-5 ovarian
DU-145 prostate = tested on: DU-145 prostate
NCI-H460 lung = tested on: NCI-H460 lung
SF-268 CNS = tested on: SF-268 CNS
HCC-2998 colon = tested on: HCC-2998 colon
IGROV1 ovarian = tested on: IGROV1 ovarian
ACHN renal = tested on: ACHN renal
EKVX NSCLC = tested on: EKVX NSCLC
RPMI-8226 leukemia = tested on: RPMI-8226 leukemia
NCI-H226 lung = tested on: NCI-H226 lung
HOP-62 NSCLC = tested on: HOP-62 NSCLC
MDA-N = tested on: MDA-N
SN12C renal = tested on: SN12C renal
COLO 205 colon = tested on: COLO 205 colon
SF-295 CNS = tested on: SF-295 CNS
HS 578T breast = tested on: HS 578T breast
SR leukemia = tested on: SR leukemia
A498 renal = tested on: A498 renal
NCI-H23 lung = tested on: NCI-H23 lung
UACC-257 melanoma = tested on: UACC-257 melanoma
OVCAR-3 ovarian = tested on: OVCAR-3 ovarian
A549 NSCLC = tested on: A549 NSCLC
SW-620 colon = tested on: SW-620 colon
786-0 renal = tested on: 786-0 renal
HL-60(TB) leukemia = tested on: HL-60(TB) leukemia
SNB-19 CNS = tested on: SNB-19 CNS
HOP-92 NSCLC = tested on: HOP-92 NSCLC
HCT-15 colon = tested on: HCT-15 colon
LOX IMVI melanoma = tested on: LOX IMVI melanoma
NCI-H522 lung = tested on: NCI-H522 lung
MALME-3M melanoma = tested on: MALME-3M melanoma
K-562 leukemia = tested on: K-562 leukemia
MOLT-4 leukemia = tested on: MOLT-4 leukemia
SF-539 CNS = tested on: SF-539 CNS
MCF7 breast = tested on: MCF7 breast
OVCAR-8 ovarian = tested on: OVCAR-8 ovarian
SK-OV-3 ovarian = tested on: SK-OV-3 ovarian
MDA-MB-435 = tested on: MDA-MB-435
CCRF-CEM leukemia = tested on: CCRF-CEM leukemia
SNB-75 CNS = tested on: SNB-75 CNS
TK-10 renal = tested on: TK-10 renal
T-47D breast = tested on: T-47D breast
CAKI-1 renal = tested on: CAKI-1 renal
MDA-MB-231 breast = tested on: MDA-MB-231 breast
UACC-62 melanoma = tested on: UACC-62 melanoma
RXF 393 renal = tested on: RXF 393 renal
SK-MEL-5 melanoma = tested on: SK-MEL-5 melanoma
HT29 colon = tested on: HT29 colon
UO-31 renal = tested on: UO-31 renal
SK-MEL-2 melanoma = tested on: SK-MEL-2 melanoma

Compound: CCC(=O)c1cc(C(=O)C(=S)SC)cc(C(=O)C(=S)SC)c1
- TGI (NCI/ADR-RES ovarian): > 100 µM
- TGI (HCT-116 colon): > 100 µM
- TGI (PC-3 prostate): > 100 µM
- TGI (U251 CNS): > 100 µM
- TGI (OVCAR-4 ovarian): > 100 µM
- TGI (M14 melanoma): > 100 µM
- TGI (BT-549 breast): > 100 µM
- TGI (SK-MEL-28 melanoma): > 100 µM
- TGI (KM12 colon): > 100 µM
- TGI (OVCAR-5 ovarian): > 100 µM
- TGI (DU-145 prostate): > 100 µM
- TGI (NCI-H460 lung): > 100 µM
- TGI (SF-268 CNS): > 100 µM
- TGI (HCC-2998 colon): > 100 µM
- TGI (IGROV1 ovarian): > 100 µM
- TGI (ACHN renal): > 100 µM
- TGI (EKVX NSCLC): > 100 µM
- TGI (RPMI-8226 leukemia): > 100 µM
- TGI (NCI-H226 lung): > 100 µM
- TGI (HOP-62 NSCLC): > 100 µM
- TGI (MDA-N): > 100 µM
- TGI (SN12C renal): > 100 µM
- TGI (COLO 205 colon): > 100 µM
- TGI (SF-295 CNS): > 100 µM
- TGI (HS 578T breast): > 100 µM
- TGI (SR leukemia): > 100 µM
- TGI (A498 renal): > 100 µM
- TGI (NCI-H23 lung): > 100 µM
- TGI (UACC-257 melanoma): > 100 µM
- TGI (OVCAR-3 ovarian): > 100 µM
- TGI (A549 NSCLC): > 100 µM
- TGI (SW-620 colon): > 100 µM
- TGI (786-0 renal): > 100 µM
- TGI (HL-60(TB) leukemia): > 72.6 µM
- TGI (SNB-19 CNS): > 100 µM
- TGI (HOP-92 NSCLC): > 100 µM
- TGI (HCT-15 colon): > 100 µM
- TGI (LOX IMVI melanoma): > 100 µM
- TGI (NCI-H522 lung): > 100 µM
- TGI (MALME-3M melanoma): > 100 µM
- TGI (K-562 leukemia): > 100 µM
- TGI (MOLT-4 leukemia): > 63.4 µM
- TGI (SF-539 CNS): > 100 µM
- TGI (MCF7 breast): > 100 µM
- TGI (OVCAR-8 ovarian): > 100 µM
- TGI (SK-OV-3 ovarian): > 100 µM
- TGI (MDA-MB-435): > 100 µM
- TGI (CCRF-CEM leukemia): > 24.6 µM
- TGI (SNB-75 CNS): > 100 µM
- TGI (TK-10 renal): > 100 µM
- TGI (T-47D breast): > 100 µM
- TGI (CAKI-1 renal): > 100 µM
- TGI (MDA-MB-231 breast): > 100 µM
- TGI (UACC-62 melanoma): > 100 µM
- TGI (RXF 393 renal): > 100 µM
- TGI (SK-MEL-5 melanoma): > 100 µM
- TGI (HT29 colon): > 100 µM
- TGI (UO-31 renal): > 100 µM
- TGI (SK-MEL-2 melanoma): > 100 µM

Compound: COc1ccc(O)c(/C=N/NC(=S)N2CCCCC2)c1
- TGI (NCI/ADR-RES ovarian): > 23.2 µM
- TGI (HCT-116 colon): > 100 µM
- TGI (PC-3 prostate): > 100 µM
- TGI (U251 CNS): > 100 µM
- TGI (OVCAR-4 ovarian): > 100 µM
- TGI (M14 melanoma): 10.9 µM
- TGI (BT-549 breast): > 94.8 µM
- TGI (SK-MEL-28 melanoma): > 83.4 µM
- TGI (KM12 colon): > 100 µM
- TGI (OVCAR-5 ovarian): > 100 µM
- TGI (DU-145 prostate): > 43.1 µM
- TGI (NCI-H460 lung): > 30.1 µM
- TGI (SF-268 CNS): 62.9 µM
- TGI (HCC-2998 colon): 19.6 µM
- TGI (IGROV1 ovarian): > 67.4 µM
- TGI (ACHN renal): 23.3 µM
- TGI (EKVX NSCLC): > 65.3 µM
- TGI (RPMI-8226 leukemia): > 27.2 µM
- TGI (NCI-H226 lung): 7.96 µM
- TGI (HOP-62 NSCLC): > 20.1 µM
- TGI (MDA-N): > 100 µM
- TGI (SN12C renal): > 100 µM
- TGI (COLO 205 colon): > 100 µM
- TGI (SF-295 CNS): > 100 µM
- TGI (HS 578T breast): > 100 µM
- TGI (SR leukemia): > 24.5 µM
- TGI (A498 renal): > 41.5 µM
- TGI (NCI-H23 lung): 20.4 µM
- TGI (UACC-257 melanoma): > 100 µM
- TGI (OVCAR-3 ovarian): > 13.4 µM
- TGI (A549 NSCLC): > 100 µM
- TGI (SW-620 colon): > 100 µM
- TGI (786-0 renal): > 78.2 µM
- TGI (HL-60(TB) leukemia): > 23.1 µM
- TGI (SNB-19 CNS): > 94.9 µM
- TGI (HOP-92 NSCLC): 50.8 µM
- TGI (HCT-15 colon): > 100 µM
- TGI (LOX IMVI melanoma): > 46 µM
- TGI (NCI-H522 lung): > 62.7 µM
- TGI (MALME-3M melanoma): 37.3 µM
- TGI (K-562 leukemia): > 21.8 µM
- TGI (MOLT-4 leukemia): > 100 µM
- TGI (SF-539 CNS): > 100 µM
- TGI (MCF7 breast): > 100 µM
- TGI (OVCAR-8 ovarian): > 43.1 µM
- TGI (SK-OV-3 ovarian): > 100 µM
- TGI (MDA-MB-435): > 100 µM
- TGI (CCRF-CEM leukemia): > 47.8 µM
- TGI (SNB-75 CNS): > 100 µM
- TGI (TK-10 renal): > 100 µM
- TGI (T-47D breast): > 89.5 µM
- TGI (CAKI-1 renal): > 84.1 µM
- TGI (MDA-MB-231 breast): > 100 µM
- TGI (UACC-62 melanoma): 23.8 µM
- TGI (RXF 393 renal): > 100 µM
- TGI (SK-MEL-5 melanoma): 30.9 µM
- TGI (HT29 colon): > 92.3 µM
- TGI (UO-31 renal): 6.22 µM
- TGI (SK-MEL-2 melanoma): > 100 µM

Compound: CCn1cc(C(=O)O)c(=O)c2cc(F)c(N3CCN(CN4C(=O)/C(=N\c5ncc(Cc6cc(OC)c(OC)c(OC)c6)c(N)n5)c5cc(Cl)ccc54)CC3)cc21
- TGI (NCI/ADR-RES ovarian): > 100 µM
- TGI (HCT-116 colon): > 100 µM
- TGI (PC-3 prostate): > 100 µM
- TGI (U251 CNS): > 100 µM
- TGI (OVCAR-4 ovarian): > 100 µM
- TGI (M14 melanoma): > 100 µM
- TGI (BT-549 breast): > 100 µM
- TGI (SK-MEL-28 melanoma): > 100 µM
- TGI (KM12 colon): > 100 µM
- TGI (OVCAR-5 ovarian): > 100 µM
- TGI (DU-145 prostate): > 100 µM
- TGI (NCI-H460 lung): > 100 µM
- TGI (SF-268 CNS): > 100 µM
- TGI (HCC-2998 colon): > 100 µM
- TGI (IGROV1 ovarian): > 100 µM
- TGI (ACHN renal): > 100 µM
- TGI (EKVX NSCLC): > 100 µM
- TGI (RPMI-8226 leukemia): > 100 µM
- TGI (NCI-H226 lung): > 100 µM
- TGI (HOP-62 NSCLC): > 100 µM
- TGI (MDA-N): > 100 µM
- TGI (SN12C renal): > 100 µM
- TGI (COLO 205 colon): > 100 µM
- TGI (SF-295 CNS): > 100 µM
- TGI (HS 578T breast): > 100 µM
- TGI (SR leukemia): > 100 µM
- TGI (A498 renal): > 100 µM
- TGI (NCI-H23 lung): > 100 µM
- TGI (UACC-257 melanoma): > 100 µM
- TGI (OVCAR-3 ovarian): > 100 µM
- TGI (A549 NSCLC): > 100 µM
- TGI (SW-620 colon): > 100 µM
- TGI (786-0 renal): > 100 µM
- TGI (HL-60(TB) leukemia): > 100 µM
- TGI (SNB-19 CNS): > 100 µM
- TGI (HOP-92 NSCLC): > 100 µM
- TGI (HCT-15 colon): > 100 µM
- TGI (LOX IMVI melanoma): > 100 µM
- TGI (NCI-H522 lung): > 100 µM
- TGI (MALME-3M melanoma): > 100 µM
- TGI (K-562 leukemia): > 100 µM
- TGI (MOLT-4 leukemia): > 100 µM
- TGI (SF-539 CNS): > 100 µM
- TGI (MCF7 breast): > 100 µM
- TGI (OVCAR-8 ovarian): > 100 µM
- TGI (SK-OV-3 ovarian): > 100 µM
- TGI (MDA-MB-435): > 100 µM
- TGI (CCRF-CEM leukemia): > 100 µM
- TGI (SNB-75 CNS): > 100 µM
- TGI (TK-10 renal): > 100 µM
- TGI (T-47D breast): > 100 µM
- TGI (CAKI-1 renal): > 100 µM
- TGI (MDA-MB-231 breast): > 100 µM
- TGI (UACC-62 melanoma): > 100 µM
- TGI (RXF 393 renal): > 100 µM
- TGI (SK-MEL-5 melanoma): > 100 µM
- TGI (HT29 colon): > 100 µM
- TGI (UO-31 renal): > 100 µM
- TGI (SK-MEL-2 melanoma): > 100 µM
